The source of these data is BindingDB's records for doi:10.3109/14756366.2012.715288 (Ankara University, 2013).

Assay [1] addresses Tyrosine-protein kinase Lyn (Homo sapiens, UniProt P07948). The assay is described as follows: In Vitor Src Tyrosine Kinase Activity Assay. To be noted: 22 °C. The procedure: (§1) Kinase activity (Src-family kinases, Hck, Lyn, Fyn, and c-Src) and the effect of the molecules were determined by ProFluor Src-Family Kinase Assay Kit (Promega). […] The compounds were dissolved in 10% DMSO and tested at 1, 10 and 100 μM concentrations. Briefly, the molecules were mixed with a reaction buffer that included a specific substrate for Src-family kinases (R110), a control substrate and the kinase. The reaction was initiated by the addition of ATP. After incubating the 96-well reaction plate at 22°C for 1 h, protease solution was added to each well and the plate was incubated for 1 h.

Assay [2] concerns the target Proto-oncogene tyrosine-protein kinase Src (Homo sapiens, UniProt P12931). The assay is described as follows: In Vitor Src Tyrosine Kinase Activity Assay. To be noted: 22 °C. The procedure:
as §1

Sequence of Proto-oncogene tyrosine-protein kinase Src (P12931 2-536 limits assumed): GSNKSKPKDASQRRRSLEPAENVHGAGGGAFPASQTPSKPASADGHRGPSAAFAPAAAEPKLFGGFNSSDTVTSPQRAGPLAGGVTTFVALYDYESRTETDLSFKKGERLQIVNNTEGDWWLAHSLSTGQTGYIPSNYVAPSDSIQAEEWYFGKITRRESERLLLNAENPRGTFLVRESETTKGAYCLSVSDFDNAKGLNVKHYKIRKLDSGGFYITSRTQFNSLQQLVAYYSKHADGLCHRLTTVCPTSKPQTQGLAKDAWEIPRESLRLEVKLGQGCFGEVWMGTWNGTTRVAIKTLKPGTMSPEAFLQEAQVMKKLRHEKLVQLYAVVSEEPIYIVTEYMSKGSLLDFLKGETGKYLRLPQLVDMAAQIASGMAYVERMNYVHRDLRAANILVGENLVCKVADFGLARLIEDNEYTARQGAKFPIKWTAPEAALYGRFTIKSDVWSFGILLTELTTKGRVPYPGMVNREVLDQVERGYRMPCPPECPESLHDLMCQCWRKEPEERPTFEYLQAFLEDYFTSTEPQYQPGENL
Sequence of Tyrosine-protein kinase Lyn (P07948 whole entry): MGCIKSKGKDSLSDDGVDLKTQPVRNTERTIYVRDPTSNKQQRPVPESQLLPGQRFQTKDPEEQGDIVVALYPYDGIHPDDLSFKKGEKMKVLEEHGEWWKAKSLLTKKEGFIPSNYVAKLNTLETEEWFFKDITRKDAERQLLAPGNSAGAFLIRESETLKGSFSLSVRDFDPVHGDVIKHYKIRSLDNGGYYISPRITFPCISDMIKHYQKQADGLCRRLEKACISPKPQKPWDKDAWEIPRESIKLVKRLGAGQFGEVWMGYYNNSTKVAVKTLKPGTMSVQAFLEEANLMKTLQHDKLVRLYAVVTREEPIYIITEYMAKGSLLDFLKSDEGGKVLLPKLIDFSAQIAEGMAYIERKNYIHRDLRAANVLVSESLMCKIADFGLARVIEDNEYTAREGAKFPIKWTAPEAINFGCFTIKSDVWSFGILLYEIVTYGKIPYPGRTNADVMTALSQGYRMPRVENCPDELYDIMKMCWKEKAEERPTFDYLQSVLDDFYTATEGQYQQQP

In general, IC50 refers to the concentration at which inhibition is half-maximal. Low values mean inhibition by little substance, high ones a need for much substance. As for `CN1CCN(C2CCC(n3cc(-c4ccc(Oc5ccccc5)cc4)c4c(N)ncnc43)CC2)CC1` (centres undefined) [A-419259], the midpoint of inhibition in assay [1], the IC50, lay at 0.0003 µM.
On to `COc1cccc(-c2cn(-c3ccc(CCN4CCC(O)CC4)cc3)c3ncnc(N)c23)c1` [CGP77675], for which the IC50 in assay [2] was 0.0004 µM.
`COc1ccc(CCCC(=O)NCc2c[nH]c3nc(N)[nH]c(=O)c23)cc1OC` [N-((2-Amino-4-oxo-4,7-dihydro-3H-pyrrolo[2,3-d]pyrimidin-5-yl)methyl)-4-(3,4-dimethoxyphenyl)butanamide (5)]: in assay [2], the IC50 amounted to 21 µM.
For the compound `Cc1ccc(C(=O)NCc2c[nH]c3nc(N)[nH]c(=O)c23)s1` [N-[(2-Amino-4-oxo-4,7-dihydro-3H-pyrrolo[2,3-d]pyrimidin-5-yl)methyl]-5-methylthiophene-2-carboxamide (7)], half-maximal inhibition in assay [2] (IC50) was put at 16 µM.
